According to patent US5691338A, “1,2-dithiole-3 thiones for the treatment of reverse transcriptase-dependent viral infections” (priority 1995, dated 1997):

Experiments:
HIV-1 [1] = conditions: cited from earlier work
HIV-1 [2] = conditions: HIV-1 infected patients, pharmacokinetics study; cited from earlier work
HIV-1 (HTLVIIIB) = assay: microbe, parasite or virus in culture; conditions: Human immunodeficiency virus 1, H9, read-out: median dose (p24 release)
Protocol: The effects for test compounds were assessed by means of both IFA and p24 release. In general, the following protocol was followed: H9 cells were infected with HIV-1 at 1000 50% infective doses of viruses/10^6 cells. Virus was allowed to adsorb for 1 h, after which unadsorbed virus was removed by centrifugation. The cells were resuspended and washed twice with PBS (without Ca^+2 or Mg^+2 salts) and centrifuged to collect the cell pellet (150×g×10 min). Cells were suspended in fresh medium and added at a final cell density of 500,000 cells/ml in a 96-well plate with media containing 0.1% DMSO and various concentrations of test compounds. The cells were re-fed freshly prepared media containing 0.1% DMSO±test compounds on day four (for preinduction experiments, cells were exposed to inducers on days -2, 0, and +4 days relative to infection). After seven days, cells were examined for cytoxicity by trypan blue exclusion, the degree of infection with HIV-1 by IFA, and the supernatants were assayed for p24 levels according to the manufacturer's directions. The IFA procedure can be summarized as follows: The cells were washed twice in PBS and were placed in 5 mm 12-well slides. After allowing the slides to dry and fixing the cells with acetone for 5 min, 10 μl of HIV-1 positive serum in 40 μl PBS was added to each well and allowed to incubate at 37° C. for 30 min. After incubation, the slides were washed twice with PBS and incubated at 37° C. for 30 min with 2.5 μl goat anti-human IgG-fluorescein isothiocyanate conjugate in 50 μl PBS containing 0.01% Evans Blue per well. The slides were then washed twice with PBS, dried, and mounted with 50% glycerol in PBS, and scored for the percentage of fluorescent cells by fluorescent microscopy.
Statistical significance for GSH and QR levels were established by the unpaired t test using the INSTAT statistics program (Graphpad, San Diego, Calif.). The Ki of oltipraz was determined by performing Segal transformations (26) of Dixon plots. […] Calculations were performed on spreadsheets using Lotus 1-2-3 software (Cambridge, Mass.).

SMILES	inhibition of HIV-1 replication (HIV-1 [1]; cultured cells)	effect on surrogate markers for HIV-1 (HIV-1 [2])	IC50 (HIV-1 (HTLVIIIB)) [nM]	synergy with anti-HIV-1 drugs (HIV-1 [1]; in vitro, Kong et al.)
CC(=O)N[C@@H](CS)C(=O)O [N-acetylcysteine]	effectively inhibit the replication of HIV-1	did not alter surrogate markers for HIV-1		
Cc1cn([C@H]2C[C@H](N=[N+]=[N-])[C@@H](CO)O2)c(=O)[nH]c1=O [AZT, 3'-azido-3'-deoxythymidine]			45	synergistic with anti-HIV-1 drugs such as phosphonoformate
